Source: patent publication US9458448B2, “Manufacturing method for silica encapsulated single-enzyme nanoparticles and single-enzyme nanoparticles manufactured by means of method” (Korea University Research and Business Foundation, priority 2011, dated 2016)

Experiments:
Type in all cases: biochemical
[1] = tested on: α-chymotrypsin (CT), silica encapsulated single-enzyme nanoparticles SEEN-CT (Example 1); assay: Kinetic constants by hydrolysis of MUTMAC, silica encapsulated single-enzyme nanoparticles SEEN-CT (Example 1)
Method: Silica encapsulated single-enzyme nanoparticles were prepared using α-chymotrypsin (CT) as schematically described in FIG. 1. Specifically, the synthesis of the silica encapsulated single-enzyme nanoparticles began with dissolution of the enzyme in an aqueous solution with an organic solvent. CT was dissolved in a 10 mM Bis-Tris propane (pH 7.8) buffer containing 1% isopropanol and 2 mM calcium chloride to a concentration of 1 mg/mL. Subsequently, 2 mM AOT added to hexane of the same volume was mixed with the enzyme solution. After stirring at room temperature for 15 minutes, phase separation was conducted through centrifugation. Only the hexane layer containing the solubilized enzyme was separated and then hexane was evaporated using nitrogen gas to adjust the concentration to 1 mg/mL.
Next, a mixture solution of TMOS:hexane (1:1) was added to the enzyme-containing hexane solution with a volume of 1% thereof and stored at 4° C. for 17 hours.
Then, after storing for 1.5 hours at room temperature and adding a 200 mM sodium phosphate buffer (pH 7.8) corresponding to 2 times the volume of the hexane, the mixture was stirred at 250 rpm for 10 minutes. After phase separation occurred through centrifugation, only the aqueous solution layer was separated. Then, impurities were filtered off through a 100-nm filter.
Subsequently, the enzyme extracted into the aqueous solution phase was stored at 4° C. for 3 days. After the 3 days, unreacted TMOS and AOT molecules were removed while replacing with a 10 mM sodium phosphate buffer using an ultrafiltration device. The as-synthesized silica encapsulated single-enzyme nanoparticles were stored at 4° C. until use.
(§1) The kinetic constants of SEEN-CT (Example 1), RM-SEEN-CT (Comparative Example 1) and free enzyme (free CT) were measured by hydrolysis of MUTMAC. The values were obtained by nonlinear regression based on the least square method.

[2] = tested on: α-chymotrypsin (CT), free enzyme (free CT); assay: Kinetic constants by hydrolysis of MUTMAC, free enzyme (Free-CT)
Method: as §1

[3] = tested on: α-chymotrypsin (CT), reverse micelle-silica encapsulated single-enzyme nanoparticles RM-SEEN-CT (Comparative Example 1); assay: Kinetic constants by hydrolysis of MUTMAC, reverse micelle-silica encapsulated RM-SEEN-CT (Comparative Example 1)
Method: Hexane containing 100 mM AOT as surfactant, and a small amount of a 10 mM Bis-Tris propane buffer containing enzymes were added. The amount of the added aqueous solution was adjusted such that its molar concentration was 20 times that of AOT. Then, the enzymes were solubilized to hexane by stirring for 10 minutes. The procedure following the solubilization of the enzymes in hexane was similar to Example 1.
In the reverse micelle method, which was employed for comparison with the method for manufacturing silica encapsulated single-enzyme nanoparticles according to the present disclosure, condensation of the silica precursor proceeds faster because more water molecules are present around the enzyme. As a result, a thicker silica network will be formed and the Michaelis-Menten constant may increase.
as §1

[4] = SEEN-CT, hydrolysis of MUTMAC, nonlinear regression, least square method
[5] = nonlinear regression, least square method
[6] = RM-SEEN-CT, hydrolysis of MUTMAC, nonlinear regression, least square method

- decrease of catalytic efficiency, kcat/Km, as compared to free CT ([1]; SEEN-CT as compared to free CT): 21%
- kcat/Km ([1]; SEEN-CT, hydrolysis of MUTMAC): 6.0 ± 0.1 × 10^5M^−1s^−1
- Km [1, 4]: 42.4 ± 0.1 µM
- kcat [1, 4]: 25.4 ± 0.1 s⁻¹
- kcat/Km [2]: 7.6 ± 0.2 × 10^5M^−1s^−1
- Km [2, 5]: 41.8 ± 0.1 µM
- kcat [2, 5]: 31.8 ± 0.8 s⁻¹
- decrease of catalytic efficiency, kcat/Km, as compared to free CT ([3]; RM-SEEN-CT as compared to free CT): about 48%
- kcat/Km ([3]; RM-SEEN-CT, hydrolysis of MUTMAC): 3.9 ± 0.1 × 10^5M^−1s^−1
- Km [3, 6]: 76.8 ± 3.6 µM
- kcat [3, 6]: 30.3 ± 0.8 s⁻¹
SMILES: Cc1cc(=O)oc2cc(OC(=O)/C=C/c3ccc([N+](C)(C)C)cc3)ccc12 [MUTMAC]
